Source: patent US20020137929A1, “1 - (3-heterocyclylphenyl) isothiourea, -isourea, -guanidine and -amidine herbicidal agents” (Intellectual Property Department, BASF Aktiengesellschaft, priority 1998, published 2002)

Key:
ECHCG (Barnyardgrass) = experiment: Postemergence herbicidal evaluation; assay type: in vivo, Echinochloa crus-galli; conditions: postemergence
Procedure, shortened: (§1)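 Seedlings grown about two weeks were sprayed at 40 psi with compound dispersed in 50/50 acetone/water plus 0.5% TWEEN 20, at about 0.0156 to 0.500 kg/ha. Plants were kept in the greenhouse and scored 4–5 weeks later on a 0–9 visual scale against untreated controls.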

GALAP (Galium) [1] = experiment: Postemergence herbicidal evaluation; assay type: in vivo, Galium aparine; conditions: postemergence
Procedure, shortened: as §1

CYPSE (Flatsedge) [2] = experiment: Preemergence weed control under flooded paddy conditions; assay type: in vivo, Cyperus serotinus; conditions: rated 3-4 weeks after treatment
Procedure, shortened: (§2)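 Ratings on a 0-9 visual scale cover stand, vigor, malformation, size, chlorosis and overall appearance relative to a control, taken three to four weeks post-treatment. Application was into flood water over freshly sown silt loam at roughly 0.0313 to 0.500 kg/ha.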

CYPIR (Rice Flatsedge) = experiment: as above; assay type: in vivo, Cyperus iria; conditions: rated 3-4 weeks after treatment
Procedure, shortened: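 Seeds or propagules sown in top 0.5 cm of silt loam soil, flooded 1.5 to 3 cm above surface throughout. Compound in 50/50 v/v aqueous/acetone pipetted into flood water at about 0.0313 to 0.500 kg/ha. Visual 0-9 rating versus control after three to four weeks in greenhouse.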

CYPSE (Flatsedge) [3] = experiment: Postemergence weed control under flooded paddy conditions; assay type: in vivo, Cyperus serotinus; conditions: postemergence weeds, rated 3 to 4 weeks after treatment
Procedure, shortened: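 Containers holding 3–5 cm weeds and rice at 1.5–2.5 leaves are flooded to 1.5–3 cm above soil. Compound in 50/50 v/v aqueous/acetone is then added directly to the water, about 0.0313–0.500 kg/ha. Plants are kept in the greenhouse and rated 0–9 visually at 3–4 weeks.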

[4] = system: CHEAL (Lambsquarters, Common); experiment: Postemergence herbicidal evaluation; assay type: in vivo, Chenopodium album; conditions: postemergence
Procedure, shortened: as §1

CASOB (Sicklepod) [5] = experiment: Preemergence herbicidal evaluation; assay type: in vivo, Cassia obtusifolia; conditions: preemergence, rated 4-5 weeks after treatment, 0-9 scale
Procedure, shortened: (§3)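 Seeds were mixed with potting soil and planted on about one inch of soil, then sprayed with test compound in aqueous acetone at about 0.0156 to 0.500 kg per hectare. Plants grew under standard greenhouse care and were visually rated 0-9 against untreated controls 4-5 weeks post-treatment.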

[6] = system: GLXMAW (Soybean, Williams); experiment: Postemergence herbicidal evaluation; assay type: in vivo, Glycine max, (L.) Merr. cv Williams; conditions: postemergence
Procedure, shortened: as §1

SETVI (Foxtail, Green) = experiment: Postemergence herbicidal evaluation; assay type: in vivo, Setaria viridis; conditions: postemergence
Procedure, shortened: as §1

GALAP (Galium) [7] = experiment: Preemergence herbicidal evaluation; assay type: in vivo, Galium aparine; conditions: preemergence, rated 4-5 weeks after treatment, 0-9 scale
Procedure, shortened: as §3

ZEAMX (Corn, Field) = experiment: Preemergence herbicidal evaluation; assay type: in vivo, Zea mays; conditions: preemergence, rated 4-5 weeks after treatment, 0-9 scale
Procedure, shortened: as §3

AMBEL (Ragweed, Common) = experiment: Postemergence herbicidal evaluation; assay type: in vivo, Ambrosia artemisifolia; conditions: postemergence
Procedure, shortened: as §1

ORYSAT (Rice, Tebonnet) = experiment: Postemergence herbicidal evaluation; assay type: in vivo, Oryza sativa, (L.) Tebonnet; conditions: postemergence
Procedure, shortened: as §1

CASOB (Sicklepod) [8] = experiment: Postemergence herbicidal evaluation; assay type: in vivo, Cassia obtusifolia; conditions: postemergence
Procedure, shortened: as §1

[9] = system: SAGPY (Arrowhead (Pygmaea)); experiment: Preemergence weed control under flooded paddy conditions; assay type: in vivo, Sagittaria pygmaea; conditions: rated 3-4 weeks after treatment
Procedure, shortened: as §2

COC(=O)CC1SC(=Nc2cc(-n3c(=O)cc(C(F)(F)F)n(C)c3=O)c(F)cc2Cl)N(C)C1=O (stereo not shown) [Compound 88, Methyl 2-{{2-chloro-5-[3,6-dihydro-3-methyl-2,6-dioxo-4-(trifluoromethyl)-1(2H)-pyrimidinyl]-4-fluorophenyl}imino}-3-methyl-4-oxo-5-thiazolidineacetate]
ECHCG herbicidal rating (ECHCG (Barnyardgrass); rate 0.0158 kg/ha): 1.0 | ECHCG herbicidal rating (ECHCG (Barnyardgrass); rate 0.0315 kg/ha): 7.0 | ECHCG herbicidal rating (ECHCG (Barnyardgrass); rate 0.0630 kg/ha): 7.0 | GALAP herbicidal rating (GALAP (Galium) [1]; rate 0.0158 kg/ha): 4.0 | GALAP herbicidal rating (GALAP (Galium) [1]; rate 0.0315 kg/ha): 4.0 | GALAP herbicidal rating (GALAP (Galium) [1]; rate 0.0630 kg/ha): 4.0 | CYPSE herbicidal effect rating (CYPSE (Flatsedge) [2]; 0.0313 kg/ha): 3.0 | CYPSE herbicidal effect rating (CYPSE (Flatsedge) [2]; 0.0625 kg/ha): 5.0 | CYPSE herbicidal effect rating (CYPSE (Flatsedge) [2]; 0.1250 kg/ha): 7.0 | CYPSE herbicidal effect rating (CYPSE (Flatsedge) [2]; 0.2500 kg/ha): 7.0 | CYPIR herbicidal effect rating (CYPIR (Rice Flatsedge); 0.0313 kg/ha): 0.0 | CYPIR herbicidal effect rating (CYPIR (Rice Flatsedge); 0.0625 kg/ha): 0.0 | CYPIR herbicidal effect rating (CYPIR (Rice Flatsedge); 0.1250 kg/ha): 0.0 | CYPIR herbicidal effect rating (CYPIR (Rice Flatsedge); 0.2500 kg/ha): 0.0 | Herbicidal rating CYPSE (CYPSE (Flatsedge) [3]; Rate 0.0313 kg/ha): 3.0 | Herbicidal rating CYPSE (CYPSE (Flatsedge) [3]; Rate 0.0625 kg/ha): 5.0 | Herbicidal rating CYPSE (CYPSE (Flatsedge) [3]; Rate 0.1250 kg/ha): 7.0 | Herbicidal rating CYPSE (CYPSE (Flatsedge) [3]; Rate 0.2500 kg/ha): 7.0 | CHEAL herbicidal rating ([4]; rate 0.0158 kg/ha): 9.0 | CHEAL herbicidal rating ([4]; rate 0.0315 kg/ha): 9.0 | CHEAL herbicidal rating ([4]; rate 0.0630 kg/ha): 9.0 | CASOB rating (CASOB (Sicklepod) [5]; 0.0156 kg/ha): 0.0 | CASOB rating (CASOB (Sicklepod) [5]; 0.0313 kg/ha): 0.0 | CASOB rating (CASOB (Sicklepod) [5]; 0.0625 kg/ha): 0.0 | CASOB rating (CASOB (Sicklepod) [5]; 0.1250 kg/ha): 3.0 | CASOB rating (CASOB (Sicklepod) [5]; 0.2500 kg/ha): 9.0 | GLXMAW herbicidal rating ([6]; rate 0.0158 kg/ha): 8.5 | GLXMAW herbicidal rating ([6]; rate 0.0315 kg/ha): 8.5 | GLXMAW herbicidal rating ([6]; rate 0.0630 kg/ha): 9.0 | SETVI herbicidal rating (SETVI (Foxtail, Green); rate 0.0158 kg/ha): 9.0 | SETVI herbicidal rating (SETVI (Foxtail, Green); rate 0.0315 kg/ha): 9.0 | SETVI herbicidal rating (SETVI (Foxtail, Green); rate 0.0630 kg/ha): 9.0 | GALAP rating (GALAP (Galium) [7]; 0.0156 kg/ha): 0.0 | GALAP rating (GALAP (Galium) [7]; 0.0313 kg/ha): 0.0 | GALAP rating (GALAP (Galium) [7]; 0.0625 kg/ha): 3.0 | GALAP rating (GALAP (Galium) [7]; 0.1250 kg/ha): 3.0 | GALAP rating (GALAP (Galium) [7]; 0.2500 kg/ha): 9.0 | ZEAMX rating (ZEAMX (Corn, Field); 0.0156 kg/ha): 0.0 | ZEAMX rating (ZEAMX (Corn, Field); 0.0313 kg/ha): 0.0 | ZEAMX rating (ZEAMX (Corn, Field); 0.0625 kg/ha): 0.0 | ZEAMX rating (ZEAMX (Corn, Field); 0.1250 kg/ha): 6.0 | ZEAMX rating (ZEAMX (Corn, Field); 0.2500 kg/ha): 8.0 | AMBEL herbicidal rating (AMBEL (Ragweed, Common); rate 0.0158 kg/ha): 9.0 | AMBEL herbicidal rating (AMBEL (Ragweed, Common); rate 0.0315 kg/ha): 9.0 | AMBEL herbicidal rating (AMBEL (Ragweed, Common); rate 0.0630 kg/ha): 9.0 | ORYSAT herbicidal rating (ORYSAT (Rice, Tebonnet); rate 0.0158 kg/ha): 2.0 | ORYSAT herbicidal rating (ORYSAT (Rice, Tebonnet); rate 0.0315 kg/ha): 5.5 | ORYSAT herbicidal rating (ORYSAT (Rice, Tebonnet); rate 0.0630 kg/ha): 6.0 | CASOB herbicidal rating (CASOB (Sicklepod) [8]; rate 0.0158 kg/ha): 0.0 | CASOB herbicidal rating (CASOB (Sicklepod) [8]; rate 0.0315 kg/ha): 3.0 | CASOB herbicidal rating (CASOB (Sicklepod) [8]; rate 0.0630 kg/ha): 3.0 | SAGPY herbicidal effect rating ([9]; 0.0313 kg/ha): 6.0 | SAGPY herbicidal effect rating ([9]; 0.0625 kg/ha): 9.0 | SAGPY herbicidal effect rating ([9]; 0.1250 kg/ha): 9.0 | SAGPY herbicidal effect rating ([9]; 0.2500 kg/ha): 9.0
